What was measured:
[1] = test system: Giardia intestinalis; test: Giardicidal activity against albendazole-resistant Giardia intestinalis incubated for 48 hrs by hemocytometric counting method; assay type: functional, organism-based; conditions: Giardia duodenalis
[2] = test system: Giardia intestinalis; test: Giardicidal activity against nitazoxanide-resistant Giardia intestinalis incubated for 48 hrs by hemocytometric counting method; assay type: functional, organism-based; conditions: Giardia duodenalis
[3] = test system: Giardia intestinalis; test: Giardicidal activity against Giardia intestinalis WB ATCC 30957 incubated for 48 hrs by hemocytometric counting method; assay type: functional, organism-based; conditions: Giardia duodenalis, WB ATCC 30957, 48 h
[4] = test system: Giardia intestinalis; test: Giardicidal activity against metronidazole-resistant Giardia intestinalis incubated for 48 hrs by hemocytometric counting method; assay type: functional, organism-based; conditions: Giardia duodenalis
[5] = test system: Giardia intestinalis; test: Giardicidal activity against Giardia intestinalis IMSS isolate incubated for 48 hrs by hemocytometric counting method; assay type: functional, organism-based; conditions: Giardia duodenalis
[6] = test system: Giardia intestinalis; test: Potency index, ratio of nitazoxanide IC50 to test compound IC50 for Giardicidal activity against nitazoxanide-resistant Giardia intestinalis incubated for 48 hrs by hemocytometric counting method; assay type: functional, Giardia duodenalis
[7] = test system: Giardia intestinalis; test: Potency index, ratio of albendazole IC50 to test compound IC50 for Giardicidal activity against nitazoxanide resistant Giardia intestinalis incubated for 48 hrs by hemocytometric counting method; assay type: functional, Giardia duodenalis
[8] = test system: Giardia intestinalis; test: Potency index, ratio of albendazole IC50 to test compound IC50 for Giardicidal activity against albendazole-resistant Giardia intestinalis incubated for 48 hrs by hemocytometric counting method; assay type: functional, Giardia duodenalis
[9] = test system: Giardia intestinalis; test: Potency index, ratio of metronidazole IC50 to test compound IC50 for Giardicidal activity against metronidazole-resistant Giardia intestinalis incubated for 48 hrs by hemocytometric counting method; assay type: functional, Giardia duodenalis

Row | Structure (SMILES) | IC50 [1] [nM] | IC50 [2] [nM] | IC50 [3] [nM] | IC50 [4] [nM] | IC50 [5] [nM] | Ratio IC50 [6] | Ratio IC50 [7] | Ratio IC50 [8] | Ratio IC50 [9]
1 | CCCSc1ccc2[nH]c(NC(=O)OC)nc2c1 [ALBENDAZOLE] | 137 | 277 | 47 |  |  |  |  |  | 
2 | CCOc1ccc2nc(SCCN3CCOCC3)[nH]c2c1 [FABOMOTIZOLE] | 50 | 65 | 31 | 50 | 29 |  |  |  | 
3 | CC(C)Oc1ccc2c(=O)c(-c3ccccc3)coc2c1 [IPRIFLAVONE] | 45 | 14 | 34 | 510 | 25 |  |  |  | 
4 | CCOC(=O)Nc1nc2ccccc2[nH]1 [LOBENDAZOLE] | 916 | 61 | 85 | 200 | 37 | 32 | 4.5 |  | 
5 | Cc1ncc([N+](=O)[O-])n1CCO [METRONIDAZOLE] | 1630 |  |  | 1850 |  |  |  |  | 
6 | CC(=O)Oc1ccccc1C(=O)Nc1ncc([N+](=O)[O-])s1 [NITAZOXANIDE] | 21 | 1970 | 18 | 17 | 15 |  |  |  | 
7 | COc1ccc2[nH]c([S+]([O-])Cc3ncc(C)c(OC)c3C)nc2n1 (stereo not given) [TENATOPRAZOLE] | 27 | 49 | 19 | 59 | 20 | 40 |  | 5 | 31

Reference: ChEMBL document CHEMBL4819013, “The giardicidal activity of lobendazole, fabomotizole, tenatoprazole and ipriflavone: A ligand-based virtual screening and in vitro study” (Eur J Med Chem, 2021)
